In PMC9788418, “Design, Synthesis and Biological Evaluation of Syn and Anti-like Double Warhead Quinolinones Bearing Dihydroxy Naphthalene Moiety as Epidermal Growth Factor Receptor Inhibitors with Potential Apoptotic Antiproliferative Action” (Molecules, 2022):
Several values for one entry are separate records, joined by “and”; a condition that tells them apart may be missing. Identical values can stand only once.

Columns and labels:
[1] = tested on: A-549 (epithelial cancer cell line); assay: Antiproliferative assay; assay type: cell-based, human; conditions: Homo sapiens, A549; read-out: Antiproliferative Activity IC50 ± SEM, A-549
Method: (§1) 4.2.1.2. Assay for antiproliferative effect
(§2) To explore the antiproliferative potential of compounds MTT assay was performed according to previously reported procedure using different cell lines to explore the antiproliferative potential of compounds propidium iodide fluorescence assay was performed using different cell lines. To calculate the total nuclear DNA, a fluorescent dye (propidium iodide, PI) is used which can attach to the DNA, thus offering a quick and precise technique. PI cannot pass through the cell membrane and its signal intensity can be considered as directly proportional to quantity of cellular DNA. Cells whose cell membranes are damaged or have changed permeability are counted as dead ones. The assay was performed by seeding the cells of different cell lines at a density of 3000-7500 cells/well (in 200µl […]
(§3) atmospheric conditions. The medium was removed; the compounds were added to the plates at 10 µM concentrations (in 0.1% DMSO) in triplicates, followed by incubation for 48 h. DMSO (0.1%) was used as control. After incubation, medium was removed followed by the addition of PI (25 µl, 50µg/mL in water/medium) to each well of the plates. At -80 °C, the plates were allowed to freeze for 24 h, followed by thawing at 25 °C. A fluorometer (Polar-Star BMG Tech) was used to record the readings at excitation and emission wavelengths of 530 and 620 nm for each well. The percentage cytotoxicity of compounds was calculated using the following formula:
(§4) Where ATC= Absorbance of treated cells and AC= Absorbance of control. […]
(§5) positive control in the assay.

[2] = tested on: HT-29 (colon cancer cell line); assay: Antiproliferative assay; assay type: cell-based, human; conditions: Homo sapiens, read-out: Antiproliferative Activity IC50 ± SEM, HT-29
Method: as §1, §2, §3, §4, §5

[3] = tested on: MCF-7 (breast cancer cell line); assay: Antiproliferative assay; assay type: cell-based, human; conditions: Homo sapiens, MCF7; read-out: Antiproliferative Activity IC50 ± SEM, MCF-7
Method: as §1, §2, §3, §4, §5

[4] = tested on: Panc-1 (pancreas cancer cell line); assay: Antiproliferative assay; assay type: cell-based, human; conditions: Homo sapiens, PANC-1; read-out: Antiproliferative Activity IC50 ± SEM, Panc-1
Method: 4.2. Biological evaluation
4.2.1. Cytotoxic activity using MTT Assay and evaluation of IC50 […]
cells were seeded at a density of 10^4 cells mL-1 in flat-bottomed culture plates containing 96 wells each. After 24 h, medium was removed from the plates and the compounds in (in 0.1% DMSO) were added (in 200 μL medium to yield a final concentration of 0.1% v/v) to the wells of plates. A single […]
incubation, medium was removed completely from the plates followed by addition of MTT (0.4 mg/mL in medium) to each well and subsequent incubation of plates for 3h. MTT (along with the medium) was removed and DMSO (150μL) was added to each well of the culture plates, followed by vortexing and subsequent measurement of absorbance (at 540 nm) using microplate reader. The data […]
as §1, §2, §3, §4, §5

Bax = Bax activation assay; assay type: cell-based, human; conditions: for Bax Conc: A-549; for Bax Fold Change: A-549, vs control untreated cells
Method: 8, and lysed with Cell Extraction Buffer. This lysate was diluted in Standard Diluent Buffer over the range of the assay and measured for human active caspase-8 content. (cells are Plated in a density of 1.2 – 1.8 × 10,000 cells/well in a volume of 100µl complete growth medium + 100 ul of the tested compound per well in a 96-well plate for 24 hours before the enzyme assay for […].). […]
4.2.4. Bax activation assay
Bring all reagents, except the human Bax-α Standard, to room temperature for at least 30 minutes prior to opening. The human Bax-α Standard solution should not be left at room temperature for more than 10 minutes. All standards, controls and samples should be run in duplicate. Refer to the Assay Layout Sheet to determine the number of wells to be used and put any remaining wells with the desiccant back into the pouch and seal the ziploc. Store unused wells at 4 °C. Pipet 100 μL of Assay Buffer into the S0 (0 pg/mL standard) wells. Pipet 100 μL of Standards #1 through #6 into the appropriate wells. Pipet 100 μL of the Samples into the appropriate wells. Tap the plate gently to mix the contents. Seal the plate and incubate at room temperature on a plate shaker for 1 hour at ~500 rpm. Empty the contents of the wells and wash by adding 400 μL of wash solution to every well.
Repeat the wash 4 more times for a total of 5 washes. After the final wash, empty or aspirate the wells and firmly tap the plate on a lint free paper towel to remove any remaining wash buffer. Pipet 100 μL of yellow Antibody into each well, except the Blank. Seal the plate and incubate at room temperature on a plate shaker for 1 hour at ~500 […]
wells and firmly tap the plate on a lint free paper towel to remove any remaining wash buffer. Add […]
100 μL of blue Conjugate to each well, except the Blank. Seal the plate and incubate at room temperature on a plate shaker for 30 minutes at ~500 rpm. Empty the contents of the wells and wash by adding 400 μL of wash solution to every well. Repeat the wash 4 more times for a total of 5 washes. After the final wash, empty or aspirate the wells and firmly tap the plate on a lint free paper towel to remove any remaining wash buffer. Pipet 100 μL of Substrate Solution into each well.
Incubate for 30 minutes at room temperature on a plate shaker at ~500 rpm. Pipet 100 μL Stop Solution to each well. Blank the plate reader against the Blank wells, read the optical density at 450 nm. Calculate the average net Optical Density (OD) bound for each standard and sample by subtracting the average Blank OD from the average OD for each standard and sample. Using linear graph paper, plot the Average Net OD for each standard versus Bax concentration in each standard.
Approximate a straight line through the points. The concentration of Bax in the unknowns can be determined by interpolation. […]

caspase-3 = assay: Caspase-3 activation assay; conditions: for Caspase-3 Conc: A-549; for Caspase-3 Fold Change: A-549, vs control untreated cells
Method: record autophosphorylation level, EGFR kinase assay was carried out based on DELFIA/Time-
Resolved Fluorometry. The compounds were first dissolved in DMSO absolute, after dilution to
Each compound (10 µL) was incubated
with recombinant enzyme (10 µL, 5 ng for EGFR, 1:80 dilution in 100 mM HEPES) for 10 min at
25 °C, after the addition of 5X buffer (10 µL, containing 2 mM MnCl2, 100 µM Na3VO4, 20 mM HEPES and 1 mM DTT) and ATP-MgCl2 (20 µL, containing 0.1 mM ATP and 50 mM MgCl2) and
incubation for 1h. The negative and positive controls were included in each plate by the incubation
of enzyme either with or without ATP-MgCl2. The liquid was removed after incubation and the plates
were washed thrice using wash buffer. Europium-tagged antiphosphotyrosine antibody (75 µL, 400
ng) was added to each well followed by incubation of 1h and then washing of the plates using buffer.
The enhancement solution was added to each well and the signal was recorded at excitation and
The autophosphorylation percentage inhibition by compounds was calculated using the following equation:

In the case of `Cc1ccc2[nH]c(=O)cc(-n3cc(COc4cccc5cccc(OCc6cn(-c7cc(=O)[nH]c8ccc(C)cc78)nn6)c45)nn3)c2c1` [Compound 4b, 4,4′-(((naphthalene-1,8-diylbis(oxy))bis(methylene))bis(1H-1,2,3-triazole-4,1-diyl))-bis(6-methylquinolin-2(1H)-one)], the IC50 [1] is reported as 41 ± 4 nM, the IC50 [2] is reported as 48 ± 4 nM and the IC50 [3] is reported as 43 ± 4 nM. The IC50 [4] was 46 ± 4 nM, the “Bax Conc” value (Bax) was 284 pg/mL and 284.50 pg/mL and the “Bax Fold Change” value (Bax) was 34. The “Caspase-3 Conc” value (caspase-3) was 535.50 ± 4.50 pg/mL and the “Caspase-3 Fold Change” value (caspase-3) was 8 and 8.15.

Work on `O=c1cc(-n2cc(COc3cccc4cccc(OCc5cn(-c6cc(=O)[nH]c7ccccc67)nn5)c34)nn2)c2ccccc2[nH]1` [Compound 4a, 4,4′-(((naphthalene-1,8-diylbis(oxy))bis(methylene))bis(1H-1,2,3-triazole-4,1-diyl))-bis-(quinolin-2(1H)-one)] yielded an IC50 [1] of 31 ± 3 nM, an IC50 [2] of 36 ± 3 nM and an IC50 [3] of 33 ± 3 nM. The IC50 [4] was 36 ± 3 nM, the “Bax Conc” value (Bax) was 298 pg/mL and 298.60 pg/mL and the “Bax Fold Change” value (Bax) was 36. For the same molecule, the “Caspase-3 Conc” value (caspase-3) was 587.50 ± 4.50 pg/mL and the “Caspase-3 Fold Change” value (caspase-3) was 9 and 8.95.
